Experimental data: patent US7205296B2, “Substituted 2H-1,3-benzoxazin-4(3H)-ones” (Portola Pharmaceuticals, Inc., priority 2004, dated 2007)

What was measured:
[1] = biological target: T1, platelet ADP receptors (Homo sapiens, UniProt Q9H244); experiment: ARB assay: inhibition of [3H]2-MeS-ADP binding to platelets; conditions: IC50 class, [3H]2-MeS-ADP binding to whole human platelets
T1 construct: endogenous in cells; host or cells: whole apyrase-washed human platelets (outdated from blood banks, or fresh)
T1 sequence (Q9H244 whole entry): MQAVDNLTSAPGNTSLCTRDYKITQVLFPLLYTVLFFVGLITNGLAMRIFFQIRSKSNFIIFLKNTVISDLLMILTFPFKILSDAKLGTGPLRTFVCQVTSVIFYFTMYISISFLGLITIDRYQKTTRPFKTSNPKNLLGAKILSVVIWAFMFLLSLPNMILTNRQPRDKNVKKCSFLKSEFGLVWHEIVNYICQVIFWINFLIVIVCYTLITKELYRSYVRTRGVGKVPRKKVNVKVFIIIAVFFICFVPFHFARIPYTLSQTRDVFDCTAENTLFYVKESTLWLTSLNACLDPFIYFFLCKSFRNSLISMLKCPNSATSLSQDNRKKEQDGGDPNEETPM
Experimental: II. Inhibition of [^3H]2-MeS-ADP Binding to Platelets
Utilizing the second assay the potency of inhibition of such compounds with respect to [^3H]2-MeS-ADP binding to whole platelets is determined. [^3H]2-MeS-ADP binding experiments are routinely performed with outdated human platelets collected by standard procedures at hospital blood banks. Apyrase-washed outdated platelets are prepared as follows (all steps at room temperature, if not indicated otherwise):
Outdated platelet suspensions are diluted with 1 volume of CGS and platelets pelleted by centrifugation at 1900×g for 45 minutes. Platelet pellets are resuspended at 3-6×10^9 platelets/ml in CGS containing 1 U/ml apyrase (grade V, Sigma, St. Louis, Mo.) and incubated for 15 minutes at 37° C. After centrifugation at 730×g for 20 minutes, pellets are resuspended in Hepes-Tyrode's buffer containing 0.1% BSA (Sigma, St. Louis, Mo.) at a concentration of 6.66×10^8 platelets/ml. Binding experiments are performed after >45 minutes resting of the platelets.
Alternatively, binding experiments are performed with fresh human platelets prepared as described in I. (Inhibition of ADP-Mediated Platelet Aggregation in vitro), except that platelets are resuspended in Hepes-Tyrode's buffer containing 0.1% BSA (Sigma, St. Louis, Mo.) at a concentration of 6.66×10^8 platelets/ml. Very similar results are obtained with fresh and outdated platelets.
A platelet ADP receptor binding assay using the tritiated potent agonist ligand [^3H]2-MeS-ADP (Jantzen, H. M. et al. (1999) Thromb. Hemost. 81:111–117) has been adapted to the 96-well microtiter format. In an assay volume of 0.2 ml Hepes-Tyrode's buffer with 0.1% BSA and 0.6% DMSO, 1×10^8 apyrase-washed platelets are preincubated in 96-well flat bottom microtiter plates for 5 minutes with serial dilutions of test compounds before addition of 1 nM [^3H]2-MeS-ADP ([^3H]2-methylthioadenosine-5′-diphosphate, ammonium salt; specific activity 48–49 Ci/mmole, obtained by custom synthesis from Amersham Life Science, Inc., Arlington Heights, Ill., or NEN Life Science Products, Boston, Mass.). Total binding is determined in the absence of test compounds. Samples for nonspecific binding may contain 10^−5 M unlabelled 2-MeS-ADP (RBI, Natick, Mass.). After incubation for 15 minutes at room temperature, unbound radioligand is separated by rapid filtration and two washes with cold (4–8° C.) Binding Wash Buffer (10 mM Hepes pH 7.4, 138 mM NaCl) using a 96-well cell harvester (Minidisc 96, Skatron Instruments, Sterling, Va.) and 8×12 GF/C glassfiber filtermats (Printed Filtermat A, for 1450 Microbeta, Wallac Inc., Gaithersburg, Md.). The platelet-bound radioactivity on the filtermats is determined in a scintillation counter (Microbeta 1450, Wallac Inc., Gaithersburg, Md.). Specific binding is determined by […] binding, and specific binding in the presence of test compounds is expressed as % of specific binding in the absence of test compounds dilutions.

[2] = system: ADP-induced human platelet aggregation; experiment: PRP assay: inhibition of ADP-mediated platelet aggregation in vitro; format: cell-based; conditions: IC50 class
Experimental: I. Inhibition of ADP-Mediated Platelet Aggregation in vitro
The effect of testing the compound according to the invention on ADP-induced human platelet aggregation is preferably assessed in 96-well microtiter assay (see generally the procedures in Jantzen, H. M. et al. (1999) Thromb. Hemost. 81:111–117). Human venous blood is collected from healthy, drug-free volunteers into ACD (85 mM sodium citrate, 111 mM glucose, 71.4 mM citric acid) containing PGI2 (1.25 ml ACD containing 1.6 μM PGI2/10 ml blood; PGI2 was from Sigma, St. Louis, Mo.). Platelet-rich plasma (PRP) is prepared by centrifugation at 160×g for 20 minutes at room temperature. Washed platelets are prepared by centrifuging PRP for 10 minutes at 730×g and resuspending the platelet pellet in CGS (13 mM sodium citrate, 30 mM glucose, 120 mM NaCl; 2 ml CGS/10 ml original blood volume) containing 1 U/ml apyrase (grade V, Sigma, St. Louis, Mo.). After incubation at 37° C. for 15 minutes, the platelets are collected by centrifugation at 730×g for 10 minutes and resuspended at a concentration of 3×10^8 platelets/ml in Hepes-Tyrode's buffer (10 mM Hepes, 138 mM NaCl, 5.5 mM glucose, 2.9 mM KCl, 12 mM NaHCO3, pH 7.4) containing 0.1% bovine serum albumin, 1 mM CaCl2 and 1 mM MgCl2. This platelet suspension is kept >45 minutes at 37° C. before use in aggregation assays.
Inhibition of ADP-dependent aggregation is preferably determined in 96-well flat-bottom microtiter plates using a microtiter plate shaker and plate reader similar to the procedure described by Frantantoni et al., Am. J. Clin. Pathol. 94, 613 (1990). All steps are performed at room temperature. The total reaction volume of 0.2 ml/well includes in Hepes-Tyrodes buffer/0.1% BSA: 4.5×10^7 apyrase-washed platelets, 0.5 mg/ml human fibrinogen (American Diagnostica, Inc., Greenwich, Conn.), serial dilutions of test compounds (buffer for control wells) in 0.6% DMSO. After about 5 minutes preincubation at room temperature, ADP is added to a final concentration of 2 μM which induces submaximal aggregation. Buffer is added instead of ADP to one set of control wells (ADP^− control). The OD of the samples is then determined at 490 nm using a microtiter plate reader (Softmax, Molecular Devices, Menlo Park, Calif.) resulting in the 0 minute reading. The plates are then agitated for 5 min on a microtiter plate shaker and the 5 minute reading is obtained in the plate reader. Aggregation is calculated from the decrease of OD at 490 nm at t=5 minutes compared to t=0 minutes and is expressed as % of the decrease in the ADP control samples after correcting for changes in the unaggregated control samples.

For `CNc1cc2c(cc1F)C(=O)N(c1ccc(C(=O)NS(=O)(=O)c3ccc(Cl)s3)c(F)c1)CO2` [Example 57, N-(5-chlorothiophen-2-ylsulfonyl)-2-fluoro-4-(6-fluoro-7-(methylamino)-4-oxo-2H-benzo[e][1,3]oxazin-3(4H)-yl) benzamide], the IC50 [1] was < 0.05 µM and the IC50 [2] was > 30 µM.
